Reference: patent US5153227A, “Phenylsulfonyl nitromethanes as aldose reductase inhibitors” (Imperial Chemical Industries PLC, priority 1987, dated 1992)

Target: T1, aldose reductase (Bos taurus, UniProt P16116)
T1 construct: partially purified aldose reductase is isolated in known manner from bovine lenses; from tissue; host or cells: bovine lenses
Assay: in vitro inhibition of partially purified aldose reductase isolated from bovine lenses (reduction of glucose to sorbitol, spectrophotometric)
Assay type: biochemical
Conditions: in vitro test, bovine lens aldose reductase
Experimental: Thus, partially purified aldose reductase is isolated in known manner from bovine lenses. The percentage inhibition of this enzyme's ability in vitro to catalyse the reduction of aldoses to polyhydric alcohols, and particularly to reduce glucose to sorbitol, caused by a test compound is then determined using standard spectrophotometric methods.

IC50: 320 nM
SMILES: O=[N+]([O-])CS(=O)(=O)c1cccc2ccccc12 [Example 1, (1-naphthylsulphonyl)nitromethane]
